For test [1], the target named is T1, 11-beta-hydroxysteroid dehydrogenase 1 (Homo sapiens, UniProt P28845).
Target sequence in this assay (P28845 whole entry, looked up): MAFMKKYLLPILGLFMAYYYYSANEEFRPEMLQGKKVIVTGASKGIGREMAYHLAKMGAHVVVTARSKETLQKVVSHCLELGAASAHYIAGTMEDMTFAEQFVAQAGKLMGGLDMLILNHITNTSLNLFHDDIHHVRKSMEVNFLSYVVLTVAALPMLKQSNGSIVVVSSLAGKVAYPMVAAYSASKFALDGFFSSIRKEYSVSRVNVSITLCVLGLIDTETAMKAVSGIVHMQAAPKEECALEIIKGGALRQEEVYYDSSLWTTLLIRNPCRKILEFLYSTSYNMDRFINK
The target of test [2] is T2, 11-beta-hydroxysteroid dehydrogenase type 2 (Homo sapiens, UniProt P80365).
T2 sequence (P80365 whole entry): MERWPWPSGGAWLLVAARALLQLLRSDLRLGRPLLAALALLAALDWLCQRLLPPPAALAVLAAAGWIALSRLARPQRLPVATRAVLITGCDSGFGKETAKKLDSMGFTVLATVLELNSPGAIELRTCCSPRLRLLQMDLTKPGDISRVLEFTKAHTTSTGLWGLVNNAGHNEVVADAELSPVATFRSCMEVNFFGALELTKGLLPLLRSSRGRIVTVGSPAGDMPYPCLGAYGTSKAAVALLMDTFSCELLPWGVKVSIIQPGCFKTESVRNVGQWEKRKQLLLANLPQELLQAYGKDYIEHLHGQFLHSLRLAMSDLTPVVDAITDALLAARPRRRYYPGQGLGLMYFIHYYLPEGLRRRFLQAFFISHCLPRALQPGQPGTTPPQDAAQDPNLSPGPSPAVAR
As to the kind of experiment: Inhibition of human recombinant 11beta-HSD2 expressed in Escherichia coli by HTRF assay. On the technique in general: In TR-FRET formats the signal depends on donor and acceptor labels being close together.

The target of test [3] is 11-beta-hydroxysteroid dehydrogenase 1 (Mus musculus, UniProt P50172). As to the kind of experiment: Inhibition of 11beta-HSD1 in mouse liver microsomes fraction. On the set-up: species or system Microsome.
For test [4], the target named is T1, 11-beta-hydroxysteroid dehydrogenase 1. Nature of the test: Inhibition of human recombinant 11beta-HSD1 expressed in Escherichia coli by HTRF assay.
Target sequence in this assay (P28845 whole entry): as the sequence (P28845 whole entry, looked up) above
The species named for a further test is Homo sapiens. Nature of the test: Selectivity ratio, IC50 for human recombinant 11beta-HSD2 to IC50 for human recombinant 11beta-HSD1.
The target of test [5] is T1, 11-beta-hydroxysteroid dehydrogenase 1. As to the kind of experiment: Inhibition of human 11beta-HSD1.

A value given as a limit tells only on which side of the number the result lay.

11-beta-hydroxysteroid dehydrogenase 1 (Mus musculus, UniProt P50172), sequence (P50172 whole entry): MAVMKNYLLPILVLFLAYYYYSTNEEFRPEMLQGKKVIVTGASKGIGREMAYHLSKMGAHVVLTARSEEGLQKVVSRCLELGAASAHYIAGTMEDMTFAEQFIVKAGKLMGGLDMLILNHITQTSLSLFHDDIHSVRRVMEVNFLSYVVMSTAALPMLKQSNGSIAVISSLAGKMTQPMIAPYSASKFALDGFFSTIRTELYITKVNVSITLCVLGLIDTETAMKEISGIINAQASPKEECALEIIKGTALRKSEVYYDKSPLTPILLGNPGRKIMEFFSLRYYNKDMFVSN

In the case of `O=C(N1CCC2(CCc3ccccc32)C1)C1(c2ccc(Cl)cc2)CC1` (stereo not given), the BEI in test [1] turned out to be 21.6 kDa-1. Further, the IC50 in test [2] is greater than 100000 nM; in test [3] it was 2600 nM.

Molecule `O=C(N1CCC2(CCCCC2)C1)C1(c2ccc(Cl)cc2)CC1` registered a BEI in test [1] of 25.9 kDa-1. Moreover, the IC50 in test [2] was greater than 100000 nM; in test [4] it was 6 nM; in test [3], 3400 nM. Also, the Ratio IC50 in the test filed under Homo sapiens was greater than 16000.

For `O=C1CC2(CCN(C(=O)C3(c4ccccc4)CC3)CC2)Oc2ccc(F)cc21`, in test [5], the BEI amounted to 14.8 kDa-1 and the IC50 came out at 2500 nM.

In turn, `O=C(N1CCC2(CCCc3ccccc32)C1)C1(c2ccc(Cl)cc2)CC1` (stereo not given) registered a BEI in test [1] of 20.9 kDa-1. In addition, the results for the half-maximal inhibitory concentration (IC50) in test [2], in test [4] and in test [3] were greater than 100000 nM, 22 nM and 3400 nM, respectively. Moreover, the Ratio IC50 in the test listed under Homo sapiens was greater than 4500.

The molecule `O=C(N1CCC2(CCCCC2)C1)C1(c2ccccc2)CC1` had a BEI in test [1] of 32.7 kDa-1. In addition, the IC50 in test [2] is greater than 100000 nM; in test [4] it was 0.5 nM; in test [3], 377 nM. Also, the Ratio IC50 in the test listed under Homo sapiens was greater than 200000.

What is called IC50 is the midpoint of a concentration-inhibition curve.

The values above are taken from ChEMBL document CHEMBL1158438, “Discovery and structure-guided drug design of inhibitors of 11beta-hydroxysteroid-dehydrogenase type I based on a spiro-carboxamide scaffold” (Bioorg Med Chem Lett, 2009).
